Experimental data published in patent US3932400A, “Thiazole derivatives” (Sumitomo Chemical Company, Limited, priority 1972, dated 1976).

Experiments:
male mice = assay type: in vivo; settings: intravenous; 10 male mice; up and down method
β-adrenergic receptor = β-adrenergic receptor blocking activity in open chest dog; assay type: in vivo; settings: relative to propranolol = 1, pentbarbital-anesthetized open chest dog; for β-adrenergic receptor blocking activity in open chest dog (propranolol = 1), DDE: depressive effect on depressor effect (DDE) induced by intravenous isoproternol; for β-adrenergic receptor blocking activity in open chest dog (propranolol = 1), DPC: depressive effect on positive chronotropic (DPC) effect induced by intravenous isoproternol; for β-adrenergic receptor blocking activity in open chest dog (propranolol = 1), DPI: depressive effect on positive inotropic (DPI) effect induced by intravenous isoproternol
Experimental: Note: A determination of β-adrenergic receptor blocking activity of test compounds in open chest dog was as follows. Thus dogs were anesthetized with pentbarbital sodium (administrated 30 - 40 mg./kg. intraveneously). Heart rate, myocardial contractile force and blood pressure were recorded with NIHON KODEN RM-150 polygraph. A depressive effect of test compounds on positive chronotropic (DPC), positive inotropic (DPI) and depressor effect (DDE) induced by isoproternol, which was injected intraveneously at a quarter interval, was determined.

## CC(C)(C)NCC(O)CSc1nc(-c2ccc(C(N)=O)s2)cs1 (stereo not shown) [Example 37, 2-(3'-t-butylamino-2'-hydroxypropylthio)-4-(5'-carbamoyl-2'-thienyl)thiazole]
Male mice
  Acute toxicity LD50: 86 mg/kg
β-adrenergic receptor
  β-adrenergic receptor blocking activity in open chest dog (propranolol = 1), DDE: 8
  β-adrenergic receptor blocking activity in open chest dog (propranolol = 1), DPC: 15
  β-adrenergic receptor blocking activity in open chest dog (propranolol = 1), DPI: 15

## CC(=O)Nc1ccc(OCC(O)CNC(C)C)cc1 (stereo not shown) [Practolol, reference compound]
β-adrenergic receptor
  β-adrenergic receptor blocking activity in open chest dog (propranolol = 1), DDE: 0.08
  β-adrenergic receptor blocking activity in open chest dog (propranolol = 1), DPC: 0.5
  β-adrenergic receptor blocking activity in open chest dog (propranolol = 1), DPI: 0.7
